These results are taken from patent publication US9181197B2 (priority 2008, dated 2015).

One may read the ED50 as the dose at which the effect has come halfway, by size or by number of responders. Low readings indicate greater potency, high ones weaker potency. By half-life is commonly meant how long it takes for the measured level to halve. Read a high half-life as slow decline.

In series [1] the test system is rats. As to the kind of experiment: heart rate and blood pressure in rats at equianesthetic doses. As to conditions: for increase in heart rate shortly after injection / duration of significant effect on mean blood pressure / maximum decrease in mean blood pressure relative to baseline: IV, twice ED50 for LORR; for maximum decrease in mean blood pressure relative to baseline: n=3.

Series [2] deals with rats. As to the kind of experiment: loss of righting reflex (LORR) in rats after IV bolus. The series is classed as in vivo. As to conditions: for ED50: Rattus norvegicus; for ED50 / slope of duration of LORR versus logarithm of anesthetic dose: rats, IV bolus; for anesthetic toxicity in rats: highest doses. Here is the method: Rats were briefly restrained in a 3 inch diameter, 9 inch long acrylic chamber with a tail exit port. The desired dose of anesthetic was injected through a lateral tail vein catheter followed by an approximately 1 ml normal saline flush. Immediately after injection, rats were removed from the restraint device and turned supine. […] A stop-watch was used to measure the duration of LORR, which was defined as the time from drug injection until the animal spontaneously righted itself. The ED50 for LORR upon bolus anesthetic administration was determined from the anesthetic dose-dependence of LORR.

Series [3] relates to rats. As to conditions: rat, in vivo, iv.
The subject of series [4] is patients. The note with it: cited from earlier work.
Series [5] concerns rats. As to the kind of experiment: ACTH1-24-stimulated serum corticosterone in rats (adrenocortical function). The note with it: 30 min after equianesthetic dose.
Series [6] has as its system Xenopus laevis tadpoles. As to conditions: Husain et al. 2003, read-out: EC50 / free-aqueous concentration inducing loss of righting reflexes in tadpoles; cited from earlier work.
Series [7] concerns humans. As to conditions: Arden et al. 1986; cited from earlier work.
For series [8], the target named is T1, Human GABAA receptors composed of α1β2γ2L subunits (Homo sapiens, UniProt P14867+P47870).
T1 construct: expressed in transfected cells; host or cells: Xenopus laevis oocytes
T1 sequence (P14867 28-456): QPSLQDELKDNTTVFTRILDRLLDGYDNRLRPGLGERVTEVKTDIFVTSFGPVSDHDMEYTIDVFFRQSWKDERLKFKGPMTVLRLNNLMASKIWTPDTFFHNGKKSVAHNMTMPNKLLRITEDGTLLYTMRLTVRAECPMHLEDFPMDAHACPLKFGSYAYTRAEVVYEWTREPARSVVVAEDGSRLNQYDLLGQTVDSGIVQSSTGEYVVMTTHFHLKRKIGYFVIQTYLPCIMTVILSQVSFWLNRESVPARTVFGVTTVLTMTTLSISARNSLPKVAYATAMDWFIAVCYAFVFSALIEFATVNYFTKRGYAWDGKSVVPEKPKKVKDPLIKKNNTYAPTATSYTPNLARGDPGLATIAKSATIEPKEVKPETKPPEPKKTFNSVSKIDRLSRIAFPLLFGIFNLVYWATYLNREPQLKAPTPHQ
T1 sequence (P47870 25-512 limits assumed): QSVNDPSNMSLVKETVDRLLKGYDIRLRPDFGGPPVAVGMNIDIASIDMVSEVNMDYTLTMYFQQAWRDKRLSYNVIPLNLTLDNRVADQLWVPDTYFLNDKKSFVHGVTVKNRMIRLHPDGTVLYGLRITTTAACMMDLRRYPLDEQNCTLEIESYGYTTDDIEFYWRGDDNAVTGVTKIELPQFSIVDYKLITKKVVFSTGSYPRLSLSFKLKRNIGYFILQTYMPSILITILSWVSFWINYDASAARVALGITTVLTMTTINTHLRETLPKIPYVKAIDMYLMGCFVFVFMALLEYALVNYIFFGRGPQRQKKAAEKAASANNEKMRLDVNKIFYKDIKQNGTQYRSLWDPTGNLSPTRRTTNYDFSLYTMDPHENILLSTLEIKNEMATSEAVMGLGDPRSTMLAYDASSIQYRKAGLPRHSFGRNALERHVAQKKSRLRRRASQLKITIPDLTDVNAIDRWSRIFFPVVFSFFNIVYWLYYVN
T1 sequence (P18507 40-475 partner): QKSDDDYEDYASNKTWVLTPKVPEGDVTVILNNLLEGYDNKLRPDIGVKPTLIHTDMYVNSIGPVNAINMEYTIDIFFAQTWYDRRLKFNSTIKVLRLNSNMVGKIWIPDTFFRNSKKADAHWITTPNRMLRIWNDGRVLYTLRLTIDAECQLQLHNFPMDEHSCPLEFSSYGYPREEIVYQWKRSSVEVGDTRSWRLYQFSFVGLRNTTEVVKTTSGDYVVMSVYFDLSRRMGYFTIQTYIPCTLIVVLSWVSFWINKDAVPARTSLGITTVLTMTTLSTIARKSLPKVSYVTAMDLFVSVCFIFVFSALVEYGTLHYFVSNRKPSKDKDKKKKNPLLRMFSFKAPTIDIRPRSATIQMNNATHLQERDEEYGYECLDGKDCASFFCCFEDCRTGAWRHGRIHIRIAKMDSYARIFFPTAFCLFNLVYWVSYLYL
As to the kind of experiment: two-microelectrode voltage clamp of GABAA receptor currents in Xenopus oocytes. The series is classed as cell-based. The note with it: for enhancement of amplitudes of GABA-evoked currents: EC5-10 GABA, each anesthetic at its anesthetic EC50 (8 μM MOC-(R)-etomidate, 2 μM (R)-etomidate), n=6 oocytes; for direct activation of GABAA receptors: before application of GABA.

The test system of series [9] is Xenopus laevis tadpoles. As to the kind of experiment: tadpole loss of righting reflex assay.
A short description of series [10]: in-vitro metabolism in pooled human S9 liver fraction. As to conditions: for half-life at 10 μM: human, s9; for rate of metabolism relative to (R)-etomidate: liver enzymes, S9.
In series [11] the test system is animals. The note with it: LD50/ED50; cited from earlier work.

Several values for one entry are separate records, joined by “and”; a condition that tells them apart may be missing. Equal entries are not always repeated. Entries after “also recorded” stand apart in the source; their conditions may differ. Where two headings read alike, the source gives them in different places. Bounds are passed on as bounds.

As to `CCOC(=O)c1cncn1[C@H](C)c1ccccc1` (stereo in doubt) [(R)-etomidate, ethyl 3-(1-phenylethyl)imidazole-4-carboxylate], the “increase in heart rate shortly after injection” value (“increase in heart rate shortly” below) in series [1] is 49±67 BPM. Also, in [2], it took a dose of 1 ± 0.03 mg/kg to reach the 50% effect level (ED50), the “anesthetic toxicity in rats” value is reported as “no obvious anesthetic toxicity” and the “slope of duration of LORR versus logarithm of anesthetic dose” value is 27±7. In [3], the “duration of significant effect on mean blood pressure” value (from here on “duration of significant effect”) was determined as 6.5 min and the “maximum decrease in mean blood pressure relative to baseline” value is on record as −36±11 mmHg.
For the compound `CCOC(=O)c1cncn1[C@H](C)c1ccccc1` [(R)-etomidate, ethyl 3-(1-phenylethyl)imidazole-4-carboxylate], in series [4] (critically ill patients), the “duration of adrenal suppression after single bolus induction dose” value was at least 24 h. Besides, the “persistence of adrenal insufficiency after discontinuing prolonged infusion” value in series [4] (doses producing general anesthesia) is “more than 4 days”. For the same compound, the “ACTH1-24-stimulated corticosterone concentration versus vehicle” value in [5] was “significantly lower; also recorded: significantly reduced”. Also, the EC50 in series [6] was ~2000 nM and 2000 nM. In addition, the “free-aqueous concentration inducing loss of responsiveness” value in series [7] is about 2 µM. In series [8], the “enhancement of amplitudes of GABA-evoked currents” value came out at 660±240% and the “direct activation of GABAA receptors” value is listed as “evoked small currents”.
Take `COC(=O)CCOC(=O)c1cncn1[C@H](C)c1ccccc1` [MOC-(R)-etomidate, (R)-3-Methoxy-3-oxopropyl1-(1-phenylethyl)-1H-imidazole-5-carboxylate]: in [1], the “duration of significant effect” value worked out at 30 s, the “increase in heart rate shortly” value was 24±33 BPM and the “maximum decrease in mean blood pressure relative to baseline” value was −11±15 mmHg. The “duration of reduction in blood pressure” value in series [1] (summary) is reported as 30 s. The “ACTH1-24-stimulated corticosterone concentration versus vehicle” value in series [5] is on record as “not different from those that had received only vehicle; also recorded: no reduction; also recorded: unchanged versus control”. Besides, in [2], the 50% effective dose (ED50) came out at 5.2 ± 1 mg/kg, the “anesthetic toxicity in rats” value is “no obvious anesthetic toxicity” and the “slope of duration of LORR versus logarithm of anesthetic dose” value is 2.8±0.4. In addition, the “duration of LORR shorter versus propofol or (R)-etomidate” value in [2] (equianesthetic doses) was about 10 fold. The “anesthetic potency relative to (R)-etomidate's potency” value in series [2] (two species (tadpoles, rats)) is listed as “¼^th-⅕^th”. The toxicity in tadpoles entry in series [9] (0.1-128 μM, recovery in fresh oxygenated water) is reported as “No evidence of toxicity was observed”. Besides, the EC50 in [9] (Xenopus laevis, read-out: anesthetic EC50 (loss of righting reflexes)) stood at 8000 ± 2000 nM. Also, the “fraction of tadpoles anesthetized” value in series [9] (highest concentrations, 48-128 μM) is recorded as “all tadpoles were anesthetized”. The “percent of original concentration remaining” value in [10] (by 40 min) is listed as under 1%. In series [10] (by 40 min, +NADPH, 37° C.), the percent metabolized entry is “more than 99%”. In series [10] (by 40 min, start 10 μM), the concentration remaining was under 100 nM. Also, in series [10], the half-life at 10 μM stood at 4.2 min and the “rate of metabolism relative to (R)-etomidate” value is given as “at least 100 fold”. Further, the “rate of metabolism relative to (R)-etomidate” value in [10] (listed as MOC-(R)-Etomidate) is over 100 fold. For the same compound, in [8], the “enhancement of amplitudes of GABA-evoked currents” value is listed as 450±130% and the “direct activation of GABAA receptors” value is “evoked small currents”.
`O=C1CC2(CCCC2)CC(=O)N1CCCCN1CCN(c2ncccn2)CC1` [buspirone] displayed a half-life at 10 μM in series [10] of 15.4 min.
Take `CC(C)c1cccc(C(C)C)c1O` [propofol]: in [1], the “duration of significant effect” value was 420 s, the “increase in heart rate shortly” value is reported as 64±56 BPM and the “maximum decrease in mean blood pressure relative to baseline” value is recorded as −51±19 mmHg. In [11], the therapeutic index is reported as 3.1. Besides, in [2], the 50% effect level (ED50) was put at a dose of 4.1 ± 0.3 mg/kg, the “anesthetic toxicity in rats” value is reported as “no obvious anesthetic toxicity” and the “slope of duration of LORR versus logarithm of anesthetic dose” value is 22±4.
With `CCCC(C)C1(CC)C(=O)NC(=S)NC1=O` (stereo not shown) [thiopental], the therapeutic index in series [11] is 4.6.
